This passage reports TGI results from PubChem BioAssay (NCI).

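A five-concentration, 48-hour dose response in 96-well plates underlies each endpoint, interpolated linearly between surrounding concentrations. TGI denotes the concentration required for complete inhibition of growth.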

What all share (assay): growth of human tumour cells (NCI), 48 h
Test [1] relates to A549 NSCLC.
Test [2] has as its system COLO 205 colon.
Test [3] deals with HCC-2998 colon.
In test [4] the test system is HOP-62 NSCLC.
In test [5] the test system is MCF7 breast.
Test [6] relates to MDA-N.
In test [7] the test system is NCI-H23 lung.
For test [8], the system named is NCI-H460 lung.
For test [9], the system named is OVCAR-4 ovarian.
In test [10] the test system is SN12C renal.
The test system of test [11] is SW-620 colon.
In test [12] the test system is TK-10 renal.

In the case of `CCOC(=O)C1C(c2ccc(OC)cc2)c2c([nH][nH]c2=O)CC1(O)OCC` (stereo not given), the TGI in test [1], in test [2], in test [3], in [4], in test [5] and in test [6] was more than 100 µM in each case. The TGI in test [7], in test [8], in [9], in test [10], in [11] and in [12] was more than 100 µM throughout.
Regarding `CN(/N=C/c1ccccn1)C1=NCCCCN1`, the TGI in test [1], in test [2], in [3], in test [4], in test [5] and in [6] was more than 100 µM in each case. Further, the TGI in test [7], in [8], in test [9], in [11] and in [12] was more than 100 µM in each case.
With `CC(=O)NC1C(O)C(O)C(CO)OC1n1ncc(=O)[nH]c1=O` (stereo not given), the TGI in test [1], in test [2], in [3], in [4], in test [5] and in test [6] was more than 100 µM in each case. Moreover, the TGI in test [7], in [8], in test [9], in test [10], in [11] and in test [12] was more than 100 µM in each case.
On to `CC1(C)CCCCCCC2OC2CCCCCC(C)(C)C1=O` (stereo not given), for which the TGI was more than 100 µM in [1]; 29.5 µM in [2]; more than 70.8 µM in [3]; more than 100 µM in test [4]; more than 73.3 µM in [5]; more than 100 µM in test [6]. In addition, the TGI in test [7] was more than 100 µM; in [8], more than 100 µM; in [9], more than 100 µM; in test [10], more than 64 µM; in test [11], more than 100 µM; in test [12], more than 100 µM.
Turning to `CC(=O)OC1COC(n2c(-c3ccc(Cl)cc3)cc(-c3ccccc3)c(C#N)c2=S)C(OC(C)=O)C1OC(C)=O` (stereo not given), the TGI in test [1] was 30.6 µM; in test [2], more than 64.2 µM; in test [3], more than 90.3 µM; in [4] it was 28.4 µM; in test [5], more than 100 µM; in test [6] it was more than 100 µM. Also, the TGI in test [7] is 28.3 µM; in [8], more than 66.8 µM; in test [9] it was 11.1 µM; in test [10], 31.8 µM; in test [11] it was more than 100 µM; in test [12], more than 73.4 µM.
On to `O=C(O)c1ccc2c(c1)CC1(C2)Cc2ccccc2C1=O` (stereo not given), for which the TGI in [1], in [2], in test [3], in test [4], in test [5] and in test [6] was more than 100 µM each time. Also, the TGI in test [7], in [8], in test [9], in test [10], in test [11] and in [12] was more than 100 µM each time.
Turning to `O=C1c2c(ccc3c2CCC3)CC12Cc1cc3c(cc1C2)CCC3`, the TGI in [1], in test [2], in test [3], in test [4], in test [5] and in test [6] was more than 100 µM each time. Moreover, the TGI in [7], in test [8], in test [9], in test [10], in test [11] and in test [12] was more than 100 µM throughout.
As to `COc1cc(C2c3cc4c(cc3OC(Nc3ccccc3)C2C)OCO4)cc(OC)c1OC` (stereo not given), the TGI was more than 100 µM in test [1]; 14.5 µM in test [2]; more than 26.6 µM in [3]; 9.89 µM in test [4]; more than 100 µM in [5]; 0.784 µM in [6]. For the same molecule, the TGI in test [7], in test [8], in test [9], in test [10], in [11] and in test [12] was more than 100 µM in each case.
On to `O=c1c2cc([N+](=O)[O-])ccc2n2n1Cc1ccccc1C2`, for which the TGI in test [1], in test [2], in test [3], in test [4], in test [5] and in test [6] was more than 100 µM in each case. In addition, the TGI in test [7], in test [8], in [9], in test [10], in test [11] and in test [12] was more than 100 µM throughout.
On to `COc1c2ccccc2c(OC)c2nc(C)ccc12`, for which the TGI in test [1] was more than 100 µM; in [2], more than 96.7 µM; in [3] it was more than 100 µM; in test [4] it was more than 100 µM; in test [5], more than 100 µM; in [6], more than 100 µM. Further, the TGI in [7], in test [8], in test [9], in test [10], in test [11] and in [12] was more than 100 µM in each case.
For `COc1ccc(-c2c(CN3CCOCC3)sc3nc4ccccc4n23)cc1`, the TGI in [1] is more than 86.1 µM; in test [2], 49.4 µM; in test [3], 99.2 µM; in [4] it was more than 100 µM; in [5], more than 100 µM; in test [6], 5.38 µM. Further, the TGI is more than 100 µM in test [7]; 53.5 µM in test [8]; more than 100 µM in test [9]; more than 100 µM in test [10]; more than 100 µM in [11]; more than 100 µM in [12].
For the molecule `Nc1cn(Cc2ccccc2)c2nc(/C=C3/C=CC=CC3=O)c(O)n12`, the TGI in test [1], in test [2], in test [3], in test [4], in test [5] and in [6] was more than 100 µM throughout. Further, the TGI in [7], in [8], in test [9], in [10], in test [11] and in [12] was more than 100 µM in each case.
Turning to `CN(C)CCCCN1c2ccccc2Sc2cc(N=[N+]=[N-])ccc21`, the TGI was found to be 3.37 µM in test [1]; 3.09 µM in [2]; 3.37 µM in [3]; 5.22 µM in [4]; 3.32 µM in test [5]; 3.1 µM in test [6]. In addition, the TGI amounted to 22.4 µM in test [7]; 3.83 µM in test [8]; 6.35 µM in test [9]; 12.1 µM in [10]; 3.56 µM in test [11]; 4.86 µM in [12].
Turning to `O=C1CCC2CCC1C2` (stereo not given), the TGI in test [1], in [2], in test [3], in test [4], in [5] and in test [6] was more than 100 µM each time. For the same molecule, the TGI in test [7], in test [8], in test [9], in [10] and in [12] was more than 100 µM in each case.
In the case of `CN(C)C(=O)Nc1cc2c3c(c1)CCCN3CCC2`, the TGI in test [1], in test [2], in [3], in [4], in test [5] and in [6] was more than 10 µM each time. For the same molecule, the TGI in [7], in [8], in test [9], in [10], in [11] and in test [12] was more than 10 µM each time.
Turning to `Cc1occc1C(=S)Nc1ccc(Cl)c(/C=N/OC(C)C)c1`, the TGI in test [1] is 54.2 µM; in test [2], 37 µM; in test [3] it was more than 59.6 µM; in test [4], more than 60.9 µM; in test [5] it was more than 51.6 µM; in test [6], 45 µM. For the same molecule, the TGI in [7] is 52.3 µM; in [8], more than 57.5 µM; in test [9], more than 59.7 µM; in test [10], 35.1 µM; in test [11], 52.3 µM; in test [12], 55.8 µM.
In the case of `O=C1c2ccccc2C2=Nc3ccncc3CN12`, the TGI in [1], in [2], in test [3], in test [4], in test [5] and in test [6] was more than 100 µM throughout. Also, the TGI in [7], in test [8], in [9], in test [10], in test [11] and in [12] was more than 100 µM each time.
Regarding `COc1ccc(C(c2c[nH]c3ccc(Br)cc23)c2c[nH]c3ccc(Br)cc23)cc1`, the TGI in [1] was found to be 1.22 µM; in test [2], 0.347 µM; in test [3], 0.353 µM; in test [4], 1.22 µM; in test [5], 0.765 µM; in [6] it was 0.552 µM. In addition, the TGI amounted to 1.47 µM in [7]; 0.361 µM in test [8]; 1.25 µM in [9]; 1.1 µM in test [11]; 2.27 µM in test [12].
`O=c1[nH]c(=S)[nH]n1C(=S)n1[nH]c(=S)[nH]c1=O`: the TGI was more than 100 µM in [1]; more than 100 µM in test [2]; more than 100 µM in test [3]; more than 100 µM in test [4]; 40.6 µM in test [5]; more than 100 µM in test [6]. Moreover, the TGI in test [7], in [8], in test [9], in test [10], in test [11] and in test [12] was more than 100 µM throughout.
`N#Cc1c(Cl)/c(=C/O)c(=O)n2c1nc1ccccc12`: the TGI in [1], in [2], in test [3], in [4], in test [5] and in test [6] was more than 100 µM in each case. In addition, the TGI in test [7], in [8], in test [9], in [10], in test [11] and in [12] was more than 100 µM throughout.
Turning to `C=C(Br)CN(C(C)=O)C1CCCCC1`, the TGI in test [1], in test [2], in test [3], in test [4], in [5] and in [6] was more than 100 µM throughout. The TGI in [7], in test [8], in test [9], in [10], in test [11] and in test [12] was more than 100 µM each time.
As for `COc1cccc2c(Nc3ccc(S(=O)(=O)NC(C)=O)cc3)c3ccc([N+](=O)[O-])cc3nc12`, the TGI in test [1] was more than 100 µM; in test [2], more than 95.7 µM; in test [3], more than 100 µM; in [4], more than 100 µM; in [5] it was more than 100 µM; in test [6] it was more than 100 µM. Further, the TGI in test [7] was more than 100 µM; in test [8] it was more than 100 µM; in [9], more than 100 µM; in test [10], more than 100 µM; in test [11] it was more than 79.8 µM; in [12] it was more than 56.7 µM.
As to `C=C1CC(C)(COc2ccc3ccc(=O)oc3c2)OC1=O` (stereo not given), the TGI in test [1] was 30.5 µM; in [2], 4.42 µM; in test [3], 6.96 µM; in test [4], 39.5 µM; in test [5], 5.65 µM; in test [6] it was 13.8 µM. Moreover, the TGI in test [7] was determined as 12.3 µM; in [8], 22.9 µM; in [9], 11.1 µM; in test [10], 25 µM; in test [11] it was 4.79 µM; in test [12], 4.29 µM.
On to `[O-][n+]1onc(-c2ccccc2)c1CN1CCOCC1`, for which the TGI in test [1], in [2], in test [3], in [4], in test [5] and in test [6] was more than 100 µM in each case. Also, the TGI in [7], in [8], in [9], in test [10], in test [11] and in [12] was more than 100 µM each time.
